Reference: patent US20180142206A1, “REVERSION OF PRIMED PLURIPOTENT STEM CELLS TO NAIVE PLURIPOTENT STEM CELLS” (The J. David Gladstone Institutes, A Testamentary Trust …, priority 2015, published 2018)

Key:
[1] = tested on: Xi-GFP mEpiSCs; experiment: Flow cytometric analysis of GFP and CD31 expression in Xi-GFP mEpiSCs; type: cell-based, mouse; conditions: for % of GFP/CD31 double positive cells compared with LIF alone: added to N2B27 medium containing LIF; for LIF induced Xi-reactivation (GFP/CD31 double positive cells): LIF-containing mEpiSC medium with or without Activin A and bFGF
Procedure: To more quantitatively assess the proportion of GFP positive cells under these three culture conditions, Fluorescence Activated Cell Sorting (FACS) was employed. For flow cytometric analyses, Xi-GFP mEpiSCs were dissociated into single cell suspensions with Accutase. The single cells were stained with a CD31 (PECAM) antibody (Clone MEC13.3/BD Bioscience (Franklin Lakes, N.J., USA)) conjugated with allophycocyanin, or APC. The stained cells were analyzed using MACSQuant VYB (Miltenyi Biotec, San Diego, Calif., USA) and FlowJo (FlowJo LLC, Ashland, Oreg., USA) software. […] In the LIF+2i and SNL-CM, the GFP^+ populations were also CD31^+, a marker for mouse naïve pluripotent stem cells (FIG. 1, panel C).
Xi-GFP mEpiSCs were dissociated with Accutase into single cell suspensions, and the single cells were seeded on a fibronectin-coated plate in the Activin A and bFGF-containing medium with two different cell densities (20,000 cells or 3,000 cells/well of a 6-well plate) one day before starting conversion experiments. Twenty-four hours after the seeding, fresh primed media was replenished as a negative control or changed to naïve medium. Assay medium was changed every 24 hours and GFP fluorescent was checked daily by microscopic inspection for eight (with 20,000 starting cells) to 13 days (with 3,000 starting cells).
The naïve media contained 1,000 units LIF (Millipore), 10 ng/ml BMP4 (R&D systems), 64 μg/ml L-ascorbic acid 2-phosphate (Sigma), 10 nM to 100 nM LPA (Avanti Polar Lipids (Alabaster, Ala., USA)), and/or 100 nM OMPT (Avanti Polar Lipids (Alabaster, Ala., USA)) in N2B27 basal medium purchased from StemCells Inc (Palo Alto, Calif., USA) or prepared in house for use in FIGS. 4 and 5. The in house N2B27 medium consists of 500 ml DMEM/F12+GlutaMax (Life Technologies (Carlsbad, Calif., USA), 500 ml Neurobasal medium (Life Technologies (Carlsbad, Calif., USA)), 5 ml N2 supplement (Life Technologies (Carlsbad, Calif., USA)), 10 ml B27 supplement (Life Technologies (Carlsbad, Calif., USA)), 666 μl 7.5% BSA Fraction V (Life Technologies (Carlsbad, Calif., USA)) and 5 ml GlutaMax (Life Technologies (Carlsbad, Calif., USA)/1 liter. At the end of the conversion experiments, the conversion efficiencies were evaluated by counting GFP^+ cell clusters or by flow cytometer.

[2] = tested on: hiPSCs; experiment: Reversion of primed hiPSCs containing episomal reprogramming factors in reversion media; type: cell-based, human; conditions: for conversion to cells with features of naïve pluripotency (dome shaped colonies): 1 μM OMPT, 10 ng/mL LIF in StemFit, no bFGF, TGF-β, laminin-511
Description: These naive-like cells formed three-dimensional dome shaped colonies characteristic of naïve pluripotent stem cells and very different from the colony morphology of primed hiPSCs. […] In addition, they provide the basis for further investigation of whether modulating the LPA-LPAR-RHO signaling axis can be used to generate and maintain human naïve pluripotent stem cells.

[3] = tested on: hiPSCs; experiment: Reversion of primed integration-free hiPSCs in lipid containing reversion media; type: cell-based, human
Procedure: Human iPSCs were generated with episomal vectors expressing Oct4, Sox2, Klf4, myc, Lin28 and shRNA against […] using the methods described by Okita et al. (2011) Nature Methods 8(5):409-412. The hiPSCs were grown in primed media containing bFGF and TGF-β in StemFit basal medium (or mTeSR orE8). Primed hiPSCs were then switched to reversion media and cultured on laminin-511 under hypoxic conditions. The reversion media contained 10 ng/mL LIF, 10 ng/mL Activin A, 100 ng/mL bFGF, 1 μM PD0325901 MEK inhibitor, 1 μM CHIR99021 GSK3β inhibitor, and 2 mM N-acetyl cysteine in StemFit basal medium with various concentrations of lipids (2 μM OMPT, 1 μM OMPT, 1 μM OMPT+20 nM LPA, or no lipids). After 5 to 7 days, three-dimensional dome shaped colonies, characteristic of naïve pluripotent stem cells, were observed. […] The naïve cells also expressed NANOG, KLF4, KLF17 and TFCP2L1, markers for naïve human pluripotent stem cells (FIG. 9).

[4] = tested on: primed pluripotent stem cells; experiment: Cell morphology/toxicity of primed PSCs grown in various concentrations of LPA or OMPT
Procedure: To optimize the concentration of LPA and OMPT, primed pluripotent stem cells were grown in various concentrations of LPA or OMPT.

[5] = tested on: Xi-GFP mEpiSCs; experiment: Xi-reactivation in Xi-GFP mEpiSC reporter line, GFP positive clusters by fluorescence microscopy; type: cell-based, mouse; conditions: exogenous addition to SNL-CM and non-CM+LIF
Procedure: During somatic cell reprogramming the human Xi is reliably reactivated in hiPSCs reprogrammed on SNL feeder cells. […] It was first determined whether the culture conditions that promoted reactivation of the Xi during reprogramming also promoted Xi-reactivation of mouse EpiSCs, which are XaXi. Results of culturing an X-GFP mEpiSC reporter line, in which the green fluorescent protein (GFP) gene is located on the X-chromosome in different media were assayed by fluorescence microscopy. Gillich et al., (2012) Cell Stem Cell 10(4):[…], Bao et al., (2009) Nature 461(7268):1292-1295. Xi-GFP mEpiSCs were kindly provided by Drs. Azim Surani and Siqin Bao and were routinely maintained on a fibronectin (Sigma, St. Louis, Mo., USA)-coated plate (feeder free condition) in N2B27 basal medium (Ndiff 227 medium from StemCells Inc (Palo Alto, Calif., USA) and later from Clontech (Mountain View, Calif., USA) supplemented with 20 ng/ml Activin A (R&D systems (Minneapolis, Minn., USA)) and 12 ng/ml bFGF (Millipore (Billerica, Mass., USA)). Cells were passaged every two to three days at a 1:20 dilution from a previous culture after detached/scraped and dissociated with Accutase (Millipore (Billerica, Mass., USA)).
Cells remain GFP negative when cultured under feeder-free mEpiSC conditions, N2B27 medium containing Activin A and bFGF on fibronectin coated plates (FIG. 1, panels A and B). […]

Cc1noc(-c2ccc(CSCCC(=O)O)cc2)c1NC(=O)OC(C)c1ccccc1Cl (stereo not shown) [Ki16425]
% of GFP^+ cells ([1]; added to medium containing LIF+LPA or LIF alone): significantly reduces

CCCCCCCC/C=C\CCCCCCCC(=O)OC[C@H](COP(O)(O)=S)OC [OMPT, 1-oleoyl-2-methyl-sn-glycero-3-phosphothioate]
conversion to cells with features of naïve pluripotency (dome shaped colonies) [2]: cells with features of naïve pluripotency were observed | time for which three-dimensional dome shaped colonies were maintained ([3]; 2 μM or 1 μM OMPT, or 1 μM OMPT+20 nM LPA, laminin-511, hypoxic, approximately five passages): more than one month | conversion of hiPSCs to cells with characteristics of naïve PSCs (colony morphology) ([3]; compared to control media containing no lipids, FIG. 7): converts the hiPSCs to cells with characteristics of naïve PSCs

NC(=O)c1ccc(-c2nc(-c3ccc4c(c3)OCO4)c(-c3ccccn3)[nH]2)cc1 [SB431542]
% of GFP/CD31 double positive cells ([1]; added to MEF-CM containing LIF): enhances induction of the double positive cells

O=C1O[C@H]([C@@H](O)CO)C(O)=C1O [ascorbic acid]
% of GFP/CD31 double positive cells compared with LIF alone [1]: increased

bFGF: basic fibroblast growth factor
LIF induced Xi-reactivation (GFP/CD31 double positive cells) [1]: negative effects

lysophosphatidic acid [LPA]
conversion to cells with features of naïve pluripotency (dome shaped colonies) [2]: converted to cells with characteristics of naïve PSCs | NANOG expression of naive-like cells ([2]; antibody staining, FIG. 6): continue to express NANOG | induction of GFP^+ cells ([1]; N2B27, without LIF): induced GFP^+ cells, albeit less efficiently than with LIF | toxicity to primed pluripotent stem cells ([4]; 50 nM and 100 nM): toxic | concentration at which cell toxicities were observed ([4]; FIG. 8): ≥ 10 nM

B1: Activin A: cytokine required for maintaining primed pluripotency in mEpiSCs (protein, UniProt Q04998 309-424, looked up)
Inhibin beta A chain: GLECDGKVNICCKKQFFVSFKDIGWNDWIIAPSGYHANYCEGECPSHIAGTSGSSLSFHSTVINHYRMRGHSPFANLKSCCVPTKLRPMSMLYYDDGQNIIKKDIQNMIVEECGCS
modifications: Inhibin beta A chain
LIF induced Xi-reactivation (GFP/CD31 double positive cells) [1]: negative effects | numbers of GFP+ clusters [5]: significantly reduced

B2: BMP4: bone morphogenetic protein (protein, UniProt P12644 293-408, looked up)
Bone morphogenetic protein 4: SPKHHSQRARKKNKNCRRHSLYVDFSDVGWNDWIVAPPGYQAFYCHGDCPFPLADHLNSTNHAIVQTLVNSVNSSIPKACCVPTELSAISMLYLDEYDKVVLKNYQEMVVEGCGCR
% of GFP/CD31 double positive cells compared with LIF alone [1]: dramatically increased | GFP/CD31 double positive cells ([1]; alone in N2B27 basal medium (without bFGF or Activin A), data not shown): did not induce GFP/CD31 double positive cells
